{
  "source": "patent US11168364B2",
  "about": "“Method and system for sequencing nucleic acids” (priority 2016, dated 2021)",
  "molecular_target": "T1, Bsu DNA polymerase large fragment / primed template nucleic acid (Bacillus subtilis, UniProt O34996)",
  "T1 construct": "350 U/ml Bsu DNA polymerase large fragment",
  "T1 sequence (O34996 297-880 limits assumed)": "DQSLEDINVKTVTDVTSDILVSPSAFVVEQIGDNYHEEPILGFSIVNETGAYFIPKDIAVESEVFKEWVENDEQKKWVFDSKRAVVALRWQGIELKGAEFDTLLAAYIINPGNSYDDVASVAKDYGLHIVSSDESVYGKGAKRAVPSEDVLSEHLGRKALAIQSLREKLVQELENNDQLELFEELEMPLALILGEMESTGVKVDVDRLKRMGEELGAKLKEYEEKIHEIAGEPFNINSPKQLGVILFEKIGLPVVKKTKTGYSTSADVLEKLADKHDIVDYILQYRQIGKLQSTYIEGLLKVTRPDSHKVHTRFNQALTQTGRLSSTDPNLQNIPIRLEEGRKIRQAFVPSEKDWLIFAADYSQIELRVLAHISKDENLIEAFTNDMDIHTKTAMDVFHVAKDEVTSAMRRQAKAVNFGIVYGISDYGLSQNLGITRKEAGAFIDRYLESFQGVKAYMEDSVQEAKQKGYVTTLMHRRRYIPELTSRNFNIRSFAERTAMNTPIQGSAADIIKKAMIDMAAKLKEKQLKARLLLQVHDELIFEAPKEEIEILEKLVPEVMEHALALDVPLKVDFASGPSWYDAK",
  "experiment": "Biolayer interferometry of polymerase binding to immobilized primed template with cognate or non-cognate nucleotide, salt titration (Example 19)",
  "conditions": "for Ternary Complex Signal (Δλ, nm): dCTP (cognate); for Binary Complex Signal (Δλ, nm): dGTP (non-cognate)",
  "excerpt": "A FORTEBIO® (Menlo Park, Calif.) OCTET® instrument employing biolayer interferometry to measure binding reactions at the surface of a fiber optic tip was used in a multiwell plate format to investigate differential stability of binary and ternary complexes. Template strands biotinylated at their 5′-ends were used to immobilize the primed template nucleic acid onto fiber optic tips functionalized with streptavidin (SA) according to standard procedures. […] Tips were first equilibrated in a Tris-buffered solution containing 30 mM Tris-HCl (pH 8.0), and 0.1 mM EDTA before commencing the cycling protocol. Independent binding reactions for the two test nucleotides (i.e., cognate and non-cognate nucleotides) were carried out in the presence of concentrations of NaCl, KCl, or potassium glutamate that varied from 50 mM to 500 mM. […] In all instances, the reaction mixture used during the examination step contained Tris-HCl (pH 8.0), 0.01% Tween-20, 100 μg/ml BSA, 2 mM NiSO4, 350 U/ml Bsu DNA polymerase large fragment; and one of the nucleotides at a concentration of 100 μM (dCTP was used as a cognate nucleotide, and dGTP was used as a non-cognate nucleotide). Following each examination step, tips were exposed to a buffer containing 30 mM Tris-HCl (pH 8.0), 500 mM KCl, 2 mM EDTA and 0.05% Tween-20 for 20 seconds to strip enzyme complexes from the primed template nucleic acid. The stripping step was followed by a 15 second exposure to examination buffer without enzyme, dNTP or divalent cations to regenerate tips for the next cycle of examination. When using a single contacting step to effect binding of polymerase and nucleotide to the primed template nucleic acid, the binding step was 45 seconds long, with binding interactions being monitored continuously. This was accomplished by contacting the primed template nucleic acid with a single solution that included the polymerase and test nucleotide. Results from interferometry monitoring were analyzed to identify formation of ternary complexes (i.e., identifying cognate nucleotide) or binary complexes (i.e., identifying non-cognate nucleotide).",
  "data": [
    {"smiles": "[Cl-].[Na+]", "note": "[NaCl]", "values": [
      {"measurement": "Fold Enhancement (Ternary/Binary)", "setting": "NaCl 50 mM", "result": 1.07},
      {"measurement": "Ternary Complex Signal (Δλ, nm)", "setting": "NaCl 50 mM", "result": 3.33, "unit": "nm"},
      {"measurement": "Binary Complex Signal (Δλ, nm)", "setting": "NaCl 50 mM", "result": 3.11, "unit": "nm"},
      {"measurement": "Fold Enhancement (Ternary/Binary)", "setting": "NaCl 75 mM", "result": 1.10},
      {"measurement": "Ternary Complex Signal (Δλ, nm)", "setting": "NaCl 75 mM", "result": 2.77, "unit": "nm"},
      {"measurement": "Binary Complex Signal (Δλ, nm)", "setting": "NaCl 75 mM", "result": 2.51, "unit": "nm"},
      {"measurement": "Fold Enhancement (Ternary/Binary)", "setting": "NaCl 100 mM", "result": 1.07},
      {"measurement": "Ternary Complex Signal (Δλ, nm)", "setting": "NaCl 100 mM", "result": 2.34, "unit": "nm"},
      {"measurement": "Binary Complex Signal (Δλ, nm)", "setting": "NaCl 100 mM", "result": 2.17, "unit": "nm"},
      {"measurement": "Fold Enhancement (Ternary/Binary)", "setting": "NaCl 125 mM", "result": 1.04},
      {"measurement": "Ternary Complex Signal (Δλ, nm)", "setting": "NaCl 125 mM", "result": 1.99, "unit": "nm"},
      {"measurement": "Binary Complex Signal (Δλ, nm)", "setting": "NaCl 125 mM", "result": 1.91, "unit": "nm"},
      {"measurement": "Fold Enhancement (Ternary/Binary)", "setting": "NaCl 150 mM", "result": 1.04},
      {"measurement": "Ternary Complex Signal (Δλ, nm)", "setting": "NaCl 150 mM", "result": 1.73, "unit": "nm"},
      {"measurement": "Binary Complex Signal (Δλ, nm)", "setting": "NaCl 150 mM", "result": 1.67, "unit": "nm"},
      {"measurement": "Fold Enhancement (Ternary/Binary)", "setting": "NaCl 175 mM", "result": 1.11},
      {"measurement": "Ternary Complex Signal (Δλ, nm)", "setting": "NaCl 175 mM", "result": 1.51, "unit": "nm"},
      {"measurement": "Binary Complex Signal (Δλ, nm)", "setting": "NaCl 175 mM", "result": 1.36, "unit": "nm"},
      {"measurement": "Fold Enhancement (Ternary/Binary)", "setting": "NaCl 200 mM", "result": 1.19},
      {"measurement": "Ternary Complex Signal (Δλ, nm)", "setting": "NaCl 200 mM", "result": 1.36, "unit": "nm"},
      {"measurement": "Binary Complex Signal (Δλ, nm)", "setting": "NaCl 200 mM", "result": 1.15, "unit": "nm"},
      {"measurement": "Fold Enhancement (Ternary/Binary)", "setting": "NaCl 225 mM", "result": 1.27},
      {"measurement": "Ternary Complex Signal (Δλ, nm)", "setting": "NaCl 225 mM", "result": 1.28, "unit": "nm"},
      {"measurement": "Binary Complex Signal (Δλ, nm)", "setting": "NaCl 225 mM", "result": 1.01, "unit": "nm"},
      {"measurement": "Fold Enhancement (Ternary/Binary)", "setting": "NaCl 250 mM", "result": 1.47},
      {"measurement": "Ternary Complex Signal (Δλ, nm)", "setting": "NaCl 250 mM", "result": 1.18, "unit": "nm"},
      {"measurement": "Binary Complex Signal (Δλ, nm)", "setting": "NaCl 250 mM", "result": 0.80, "unit": "nm"},
      {"measurement": "Fold Enhancement (Ternary/Binary)", "setting": "NaCl 275 mM", "result": 1.65},
      {"measurement": "Ternary Complex Signal (Δλ, nm)", "setting": "NaCl 275 mM", "result": 1.11, "unit": "nm"},
      {"measurement": "Binary Complex Signal (Δλ, nm)", "setting": "NaCl 275 mM", "result": 0.67, "unit": "nm"},
      {"measurement": "Fold Enhancement (Ternary/Binary)", "setting": "NaCl 300 mM", "result": 1.86},
      {"measurement": "Ternary Complex Signal (Δλ, nm)", "setting": "NaCl 300 mM", "result": 0.99, "unit": "nm"},
      {"measurement": "Binary Complex Signal (Δλ, nm)", "setting": "NaCl 300 mM", "result": 0.53, "unit": "nm"},
      {"measurement": "Fold Enhancement (Ternary/Binary)", "setting": "NaCl 325 mM", "result": 2.76},
      {"measurement": "Ternary Complex Signal (Δλ, nm)", "setting": "NaCl 325 mM", "result": 0.93, "unit": "nm"},
      {"measurement": "Binary Complex Signal (Δλ, nm)", "setting": "NaCl 325 mM", "result": 0.34, "unit": "nm"},
      {"measurement": "Fold Enhancement (Ternary/Binary)", "setting": "NaCl 350 mM", "result": 2.94},
      {"measurement": "Ternary Complex Signal (Δλ, nm)", "setting": "NaCl 350 mM", "result": 0.74, "unit": "nm"},
      {"measurement": "Binary Complex Signal (Δλ, nm)", "setting": "NaCl 350 mM", "result": 0.25, "unit": "nm"},
      {"measurement": "Fold Enhancement (Ternary/Binary)", "setting": "NaCl 375 mM", "result": 3.62},
      {"measurement": "Ternary Complex Signal (Δλ, nm)", "setting": "NaCl 375 mM", "result": 0.61, "unit": "nm"},
      {"measurement": "Binary Complex Signal (Δλ, nm)", "setting": "NaCl 375 mM", "result": 0.17, "unit": "nm"},
      {"measurement": "Ternary Complex Signal (Δλ, nm)", "setting": "NaCl 400 mM", "result": 0.48, "unit": "nm"},
      {"measurement": "Binary Complex Signal (Δλ, nm)", "setting": "NaCl 400 mM", "result": 0.08, "unit": "nm"},
      {"measurement": "Fold Enhancement (Ternary/Binary)", "setting": "NaCl 425 mM", "result": 5.16},
      {"measurement": "Ternary Complex Signal (Δλ, nm)", "setting": "NaCl 425 mM", "result": 0.38, "unit": "nm"},
      {"measurement": "Binary Complex Signal (Δλ, nm)", "setting": "NaCl 425 mM", "result": 0.07, "unit": "nm"},
      {"measurement": "Fold Enhancement (Ternary/Binary)", "setting": "NaCl 450 mM", "result": 6.65},
      {"measurement": "Ternary Complex Signal (Δλ, nm)", "setting": "NaCl 450 mM", "result": 0.26, "unit": "nm"},
      {"measurement": "Binary Complex Signal (Δλ, nm)", "setting": "NaCl 450 mM", "result": 0.04, "unit": "nm"},
      {"measurement": "Fold Enhancement (Ternary/Binary)", "setting": "NaCl 475 mM", "result": 10.28},
      {"measurement": "Ternary Complex Signal (Δλ, nm)", "setting": "NaCl 475 mM", "result": 0.19, "unit": "nm"},
      {"measurement": "Binary Complex Signal (Δλ, nm)", "setting": "NaCl 475 mM", "result": 0.02, "unit": "nm"},
      {"measurement": "Ternary Complex Signal (Δλ, nm)", "setting": "NaCl 500 mM", "result": 0.21, "unit": "nm"},
      {"measurement": "Binary Complex Signal (Δλ, nm)", "setting": "NaCl 500 mM", "result": 0.00, "unit": "nm"}
    ]}
  ]
}
